Assay results taken from US8399510B2, “Method of activating NK cells” (University of South Florida, priority 2007, dated 2013).

What was measured:
WT LAK cells = assay: 4 hour 51Cr release cytolysis assay with WT LAK cells; assay type: cell-based, mouse
Method: (§1) NK cells were magnetically enriched from whole splenocytes using the Miltenyi mouse NK cell enrichment kit and an Automac (Miltenyi) per the manufacturer's instructions. Magnetically enriched cells were plated at 2×10^6 cells/mL in the presence of 2000 units/mL human rIL-2 (Proleukin). Non-adherent cells were removed on day 2 and media replaced as necessary. On day 7 a standard 4 hour chromium release assay was performed. Briefly, target cells were loaded with 100 μCi of 51Cr per 1×10^6 cells for 60 minutes at 37° C. The target and lymphokine activate killer (LAK) 3 cells were then incubated together at 37° C. for 4 hours in the presence of inhibitors or media alone. Supernatants were collected and measured for radioactivity on a gamma counter (Perkin Elmer Wizard1470).
(§2) All experiments using sodium orthovanadate (NaOV) were performed with 100 μM activated NaOV. NaOV was activated by adjusting the pH of a 200 mM stock to pH 10.0 by the addition NaOH or HCl followed by boiling until the solution becomes colorless and then cooling to room temperature. This process is then repeated until the pH of the NaOV stabilizes at 10.0 (44). NaOV was added to the wells of the killing assay with the LAK cells 15 to 30 min prior to adding target cells at room temperature. NSC119910 was obtained from the Drug Synthesis and Chemistry Branch, Developmental Therapeutics Program, Division of Cancer Treatment and Diagnosis, NCI. The structure of NSC119910 was confirmed by proton NMR using a Varian Mercury-Plus, Oxford AS400 spectrometer. The 1H NMR spectrum was recorded at 400 MHz using DMSO-d6 as solvent and tetramethylsilane (TMS) as an internal standard. Chemical shift values are reported in parts per million (δ). […] 25 times this IC50 was established as the effective dose for NK cell based assays. NSC119910 was added immediately before the addition of target cells on ice. Both compounds were tested at their working concentration for the ability to kill and/or lyse the target cells without LAK cells being present.
Given the inappropriate degree of SHP1 recruitment to 2B4 in SHIP^−/− NK cells, the possibility of using chemical inhibitors to block its tyrosine phosphatase activity was explored to determine if this could restore killing of complex targets by SHIP-deficient NK cells. Standard four-hour 51Cr release assays were performed with SHIP^−/− (−/−) or WT (+/+) LAK cells, with a ratio of 30:1 and 3000 target cells for all conditions. […]
Next, the ability of NSC119910 to restore killing in the SHIP^−/− NK cell was tested. The effective in vitro dose at which NSC119910 was able to restore SHIP^−/− cytotoxicity was determined in a dose titration experiment. […] The cells were then stained for NK1.1, TCR-β and NKG2D and analyzed for NKG2D expression. […]

NKG2D = NKG2D expression on LAK cells (staining for NK1.1, TCR-β, NKG2D); assay type: cell-based, mouse; conditions: 67.32 μM NSC119910, 4 hours; SHIP−/− or WT cells
Method: Next, the ability of NSC119910 to restore killing in the SHIP^−/− NK cell was tested. The effective in vitro dose at which NSC119910 was able to restore SHIP^−/− cytotoxicity was determined in a dose titration experiment. Through this, 67.32 μM was identified as the effective dose (data not shown). This concentration of 67.32 μM of NSC119910 was used for all subsequent standard 4-hour 51Cr release assays, performed with SHIP^−/− (^−/−) or WT (^+/+) LAK cells and using a ratio of 30:1 and 3000 target cells in the presence of 67.32 μM NCI119910 or media alone (−). […] The experiments were repeated, using M157+ BaF3 transfectants were used as targets (FIG. 5D). SHIP^−/− (^−−) or WT (^++) cells were incubated with 67.32 μM NSC119910 (119910) or media alone (CNT) for 4 hours. The cells were then stained for NK1.1, TCR-β and NKG2D and analyzed for NKG2D expression. The addition of NSC119910 to LAK cells had no effect on the expression levels of NKG2D (FIG. 5E). The experiments were also performed with m157^+ BaF3 targets. […] Although the increase is not as dramatic as observed with NKG2D mediated cytolysis, this increase has been observed consistently in multiple cytolysis assays with the m157^+ BaF3 targets. […]

SHIP−/− LAK cells = assay: 4 hour 51Cr release cytolysis assay with SHIP−/− LAK cells; assay type: cell-based
Method: as §1, §2
Given the inappropriate degree of SHP1 recruitment to 2B4 in SHIP^−/− NK cells, the possibility of using chemical inhibitors to block its tyrosine phosphatase activity was explored to determine if this could restore killing of complex targets by SHIP-deficient NK cells. Standard four-hour 51Cr release assays were performed with SHIP^−/− (−/−) or WT (+/+) LAK cells, with a ratio of 30:1 and 3000 target cells for all conditions. NaOV (100 μM) was used first, a broadly acting tyrosine phosphatase inhibitor to counteract the effects of the SHP1 over-recruitment to 2B4, with a medium-only negative control. […] In fact, SHIP-deficient NK cytolysis of RMA parental targets exceeds that of WT LAK cells. This supernormal killing has been consistently observed against RMA targets in three separate studies with NaOV-treated SHIP^−/− LAK cells. This finding indicates phosphatase inhibition can restore the ability of SHIP^−/− NK cells to kill complex targets via NKG2D, while also expanding the capacity of SHIP-deficient NK cells to kill tumor cells in the absence of ligands for NKG2D.
Next, the ability of NSC119910 to restore killing in the SHIP^−/− NK cell was tested. The effective in vitro dose at which NSC119910 was able to restore SHIP^−/− cytotoxicity was determined in a dose titration experiment. Through this, 67.32 μM was identified as the effective dose (data not shown). This concentration of 67.32 μM of NSC119910 was used for all subsequent standard 4-hour 51Cr release assays, performed with SHIP^−/− (^−/−) or WT (^+/+) LAK cells and using a ratio of 30:1 and 3000 target cells in the presence of 67.32 μM NCI119910 or media alone (−). […] The experiments were repeated, using M157+ BaF3 transfectants were used as targets (FIG. 5D). SHIP^−/− (^−−) or WT (^++) cells were incubated with 67.32 μM NSC119910 (119910) or media alone (CNT) for 4 hours. The cells were then stained for NK1.1, TCR-β and NKG2D and analyzed for NKG2D expression. […]

SHP2 = molecular target: T1, SHP2 (Homo sapiens, UniProt Q06124); assay: PTP inhibition assay (DiFMUP substrate), SHP2; assay type: biochemical; conditions: in vitro phosphatase activity, versus PTP1b
T1 sequence (Q06124 1-593): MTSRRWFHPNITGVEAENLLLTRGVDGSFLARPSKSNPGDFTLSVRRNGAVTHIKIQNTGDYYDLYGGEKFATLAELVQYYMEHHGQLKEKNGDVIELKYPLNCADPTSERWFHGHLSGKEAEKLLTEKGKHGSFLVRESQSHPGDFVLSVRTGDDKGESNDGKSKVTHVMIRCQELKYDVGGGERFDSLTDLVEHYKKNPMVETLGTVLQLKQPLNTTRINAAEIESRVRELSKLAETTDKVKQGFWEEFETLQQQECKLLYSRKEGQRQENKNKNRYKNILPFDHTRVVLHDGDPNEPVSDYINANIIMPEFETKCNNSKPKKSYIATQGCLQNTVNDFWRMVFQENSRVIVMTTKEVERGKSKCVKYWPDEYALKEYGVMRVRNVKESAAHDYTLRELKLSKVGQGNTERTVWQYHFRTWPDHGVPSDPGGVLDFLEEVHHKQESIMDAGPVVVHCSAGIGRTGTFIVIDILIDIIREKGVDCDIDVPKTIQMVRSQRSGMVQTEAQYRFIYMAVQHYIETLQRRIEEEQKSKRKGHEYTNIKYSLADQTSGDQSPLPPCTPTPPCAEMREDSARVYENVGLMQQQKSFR
Method: (§3) PTP activity was measured using the fluorogenic 6,8-difluoro-4-methylumbelliferyl phosphate (DiFMUP; Invitrogen, Carlsbad, Calif.) as the substrate. Each reaction contained 25 mM HEPES, 50 mM NaCl, 0.05% Triton, 1 mM dithiothreitol, 20 μM DiFMUP, 10 nM Microcystin LR, 20 nM GST-PTP, and 10 μl of test compound or dimethyl sulfoxide (solvent) in a total reaction volume of 100 μl in black 96-well plates. Reaction was initiated by addition of DiFMUP, and the incubation time was 30 min at room temperature. DiFMUP fluorescence signal was measured at an excitation of 355 nm and an emission of 460 nm with a plate reader (Victor2 1420; PerkinElmer Wallac, Gaithersburg, Md.). IC50 was defined as the concentration of an inhibitor that caused a 50% decrease in the PTP activity. For IC50 determination, eight concentrations of NSC119910 at one-third dilution (˜0.5 log) were tested. The ranges of NSC119910 concentrations used in each PTP assay were determined from preliminary trials. Each experiment was performed either in triplicate or duplicate, and IC50 data were derived from at least two independent experiments. The curve-fitting program Prism 4 (GraphPad Software, San Diego, Calif.) was used to calculate IC50 values.

SHP1 = SHP1 (Homo sapiens, UniProt P29350); assay: PTP inhibition assay (DiFMUP substrate), SHP1; assay type: biochemical
Method: as §3

[1] = 67.32 μM NSC119910, ratio 30:1, 3000 target cells
[2] = 100 μM NaOV, ratio 30:1, 3000 target cells

Chain of SHP1 (P29350 whole entry): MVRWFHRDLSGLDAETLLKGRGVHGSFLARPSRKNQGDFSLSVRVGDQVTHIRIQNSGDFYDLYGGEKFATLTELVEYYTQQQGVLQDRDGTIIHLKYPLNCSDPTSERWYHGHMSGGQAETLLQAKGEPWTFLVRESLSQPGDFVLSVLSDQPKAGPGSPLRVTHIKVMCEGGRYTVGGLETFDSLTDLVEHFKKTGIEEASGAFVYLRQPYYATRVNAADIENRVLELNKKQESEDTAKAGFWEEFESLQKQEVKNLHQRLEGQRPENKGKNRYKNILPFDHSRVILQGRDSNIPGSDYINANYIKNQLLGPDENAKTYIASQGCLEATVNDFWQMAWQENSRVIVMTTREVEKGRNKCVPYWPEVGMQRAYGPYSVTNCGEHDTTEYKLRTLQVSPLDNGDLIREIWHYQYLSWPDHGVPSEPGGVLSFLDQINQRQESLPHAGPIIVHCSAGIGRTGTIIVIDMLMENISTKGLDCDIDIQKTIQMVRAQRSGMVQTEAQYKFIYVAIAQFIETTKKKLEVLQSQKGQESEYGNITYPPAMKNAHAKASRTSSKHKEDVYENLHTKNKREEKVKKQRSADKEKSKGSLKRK

O=C(O)C1CCCCC1c1c2ccc(=O)c(O)c-2oc2c(O)c(O)ccc12 (stereo not shown) [NSC119910]
cytolytic activity of WT NK cells against Rae1+ targets (WT LAK cells; [1]): no effect | killing of m157+ cells by WT LAK cells (WT LAK cells; NSC119910, compared with the increase seen with NaOV): the same increase of killing of m157^+ cells by WT LAK cells was not seen | killing of RMA cells by WT NK cells (WT LAK cells; in the presence of NSC119910): increase | expression levels of NKG2D on LAK cells (NKG2D): no effect | killing of m157+ BaF3 targets by SHIP−/− NK cells (SHIP−/− LAK cells; 67.32 μM NSC119910): increased | killing of Rae1+ RMA targets by SHIP−/− NK cells (SHIP−/− LAK cells; [1]): significantly restored killing | killing of parental RMA targets by SHIP−/− NK cells (SHIP−/− LAK cells; [1]): significantly restored killing | effective in vitro dose restoring SHIP−/− cytotoxicity (SHIP−/− LAK cells; dose titration experiment (data not shown)): 67.32 µM | selectivity to SHP2 over PTP1b (SHP2): approximately 100 fold | selectivity to SHP1 over PTP1b (SHP1; in vitro phosphatase activity, versus PTP1b): approximately 10 fold | IC50 (SHP1; purified SHP1, read-out: cell free, in vitro IC50 using purified SHP1): 2700 nM

[Na+].[Na+].[Na+].[O]=[V]([O-])([O-])[O-] [NaOV, Sodium orthovanadate, reference compound]
killing of RMA or RMA-Rae1+ targets by WT LAK cells (WT LAK cells; [2]): increased killing by WT LAK cells was not seen | killing of m157+ BaF3 targets by SHIP−/− NK cells (SHIP−/− LAK cells; 100 μM NaOV): able to increase the capacity | killing of parental BaF3 targets by SHIP−/− NK cells (SHIP−/− LAK cells; 100 μM NaOV): able to increase the capacity | killing of RMA parental targets by SHIP−/− LAK cells (SHIP−/− LAK cells; [2]): increased the capacity | killing of Rae1+ RMA targets by SHIP−/− LAK cells (SHIP−/− LAK cells; [2]): restore cellular ability to mediate efficient killing
